Source: patent US6440997B2, “−E-2-(3,4-dichlorocinnamyl)-1-cyclopropylmethylpiperidine, and its antidiarrhoeal use” (Warner-Lambert Company, priority 1997, dated 2002)

Experiments:
[1] = tested on: inflammatory diarrhoea caused by PGE2; settings: cited from earlier work
[2] = tested on: diarrhoea induced by Salmonella lipopolysaccharide (LPS); experiment: Diarrhoea induced by Salmonella lipopolysaccharide (LPS) in mice; settings: for ED50: Salmonella, in Mus musculus, read-out: Inhibitory activity ED50, Salmonella LPS diarrhoea; for Inhibition of diarrhoea (%): Salmonella LPS
[3] = tested on: diarrhoea induced by the A and B toxins of C. difficile; experiment: Diarrhoea induced by the A and B toxins of C. difficile in mice; type: in vivo; settings: Clostridioides difficile, po, p.o. 1 h before A and B toxins 6 ng/mouse p.o., faecal water at 120 min, read-out: Inhibitory activity ED50, C. difficile toxins diarrhoea
Procedure: (§1) b)—diarrhoea induced by the thermostable toxin of E. coli: Nourished male NMRI mice (30-35 g) are weighed and placed in individual cages previously covered with white paper allowing the viewing of the faecal matter voided. The faeces are recovered as soon as voided and are brought together, by periods of 30 min, for 120 min. The faeces thus brought together are weighed before (fresh weight) and after (dry weight) drying at 120° C. for 24 h. The quantity of water present in the faeces is calculated as the difference (fresh weight—dry weight). The thermostable toxin of Escherichia coli (Sigma, E5763) is administered by the oral route at time zero at a dose of 600 U/mouse. The animals of the control batch receive, at time zero, an oral administration of saline. The administration of the test products is carried out by the oral route 1 h before the administration of the toxins.
c)—diarrhoea induced by the A and B toxins of C. difficile: the experimental protocol, the calculation and the expression of the results are identical to those described above. The A and B toxins of C. difficile are administered by the oral route at time zero at a dose of 6 ng/mouse.

[4] = tested on: diarrhoea induced by the thermostable toxin of E. coli; experiment: Diarrhoea induced by the thermostable toxin of E. coli in mice; type: in vivo; settings: Escherichia coli, po, p.o. 1 h before toxin 600 U/mouse p.o., faecal water at 120 min, read-out: Inhibitory activity ED50, E. coli toxin diarrhoea
Procedure: as §1

[5] = molecular target: sigma receptors (Rattus norvegicus, UniProt Q9R0C9); experiment: Affinity for sigma receptors: displacement of (+)[3H]-SKF 10,047 from rat brain membrane preparation; settings: σ affinity: IC50, displacement of (+)[3H]-SKF 10,047, rat brain membrane preparation
Sequence of sigma receptors (Q9R0C9 whole entry): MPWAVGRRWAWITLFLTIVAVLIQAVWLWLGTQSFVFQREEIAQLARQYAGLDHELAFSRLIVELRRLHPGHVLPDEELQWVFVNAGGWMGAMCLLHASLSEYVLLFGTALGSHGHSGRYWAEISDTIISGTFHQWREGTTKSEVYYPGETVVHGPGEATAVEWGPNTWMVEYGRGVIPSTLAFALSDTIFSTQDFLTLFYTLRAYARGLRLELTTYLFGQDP

[6] = tested on: intestinal secretion induced by cholera toxin; experiment: animal or person; type: in vivo, rats; settings: for ED50: Rattus norvegicus, read-out: Inhibition of intestinal secretion induced by cholera toxin: ED50
[7] = tested on: transit; experiment: Effect on the transit; type: in vivo; settings: oral route, mice
[8] = Toxicity study in mice by the oral route; type: in vivo
Procedure: In animals, the toxicity study was carried out in mice by the oral route. No mortality was noted up to the strongest dose studied, namely 300 mg/kg. No toxic symptoms were evident at doses lower than 100 mg/kg. Starting from this dose, symptoms were observed such as respiratory depression, trembling, convulsions, a state of prostration or of lethargy which were reversible in a lapse of time of 24 hours after treatment.

Structure (SMILES): CCC(C/C=C/c1ccccc1)(c1ccccc1)N(C)CC1CC1 (single isomer, unassigned; (+)) [igmesine, (+)-N-cyclopropylmethyl-N-methyldiphenyl-1,4-ethyl-1-buten-3-yl-1-amine]
- Delay of the appearance of the diarrhoea ([1]; 30 mg/kg i.p., co-administered with PGE2, mice): approximately 15 min
- Inhibitory effect on PGE2 diarrhoea by the oral route ([1]; 60 mg/kg oral route, mice): zero
- ED50 [2]: 0.42 mg/kg
- ED50 [3]: 1.45 mg/kg
- ED50 [4]: 1.72 mg/kg

Structure (SMILES): C(=C\c1ccccc1)/CC1CCCCN1CC1CC1 (single isomer, unassigned; (-)) [Ex. 2A.3, (−)E-2-cinnamyl-1-cyclopropylmethyl-piperidine]
- Inhibition of diarrhoea (%) ([2]; dose 0.00003 mg/kg p.o., mice, 3e-05 mg/kg): 45%
- Inhibition of diarrhoea (%) ([2]; dose 0.0001 mg/kg p.o., mice): 65.8%
- Inhibition of diarrhoea (%) ([2]; dose 0.001 mg/kg p.o., mice, 0.001 mg/kg): 36.8%

Structure (SMILES): C(=C\c1ccccc1)/CC1CCCN1CC1CC1 (single isomer, unassigned; (-)) [Ex. 1.3, (−)E-2-cinnamyl-1-cyclopropylmethylpyrrolidine]
- ED50 [2]: 0.002 mg/kg
- Inhibition of diarrhoea (%) ([2]; dose 0.003 mg/kg p.o., mice, 0.003 mg/kg): 63.8%
- Inhibition of diarrhoea (%) ([2]; dose 0.01 mg/kg p.o., mice): 78.8%
- Inhibition of diarrhoea (%) ([2]; dose 0.03 mg/kg p.o., mice, 0.03 mg/kg): 46.7%

Structure (SMILES): CC(=O)SCC(Cc1ccccc1)C(=O)NCC(=O)OCc1ccccc1 (stereo not drawn) [acetorphan]
- ED50 [2]: 34 mg/kg

Structure (SMILES): Clc1ccc(/C=C/CC2CCCCN2CC2CC2)cc1Cl (single isomer, unassigned; (+)) [(+)E-2-(3,4-dichlorocinnamyl)-1-cyclopropylmethylpiperidine]
- IC50 [5]: 21.8 nM

Structure (SMILES): CN(C)C(=O)C(CCN1CCC(O)(c2ccc(Cl)cc2)CC1)(c1ccccc1)c1ccccc1 [loperamide]
- ED50 [2]: 0.37 mg/kg
- ED50 [3]: 4.27 mg/kg
- ED50 [4]: 3.92 mg/kg

Structure (SMILES): Clc1ccc(C=CCC2CCCCN2CC2CC2)cc1Cl (racemic) [(+/−) parent racemate, racemic E-2-(3,4-dichlorocinnamyl)-1-cyclopropylmethylpiperidine]
- ED50 [2]: 0.038 mg/kg
- ED50 [3]: 0.058 mg/kg
- ED50 [6]: 1.9 mg/kg
- ED50 [4]: 0.077 mg/kg
- IC50 [5]: 44.1 nM

Structure (SMILES): Clc1ccc(/C=C/CC2CCCCN2CC2CC2)cc1Cl (single isomer, unassigned; (-)) [eutomer (I), (−)E-2-(3,4-dichlorocinnamyl)-1-cyclopropylmethylpiperidine]
- ED50 [2]: 0.0056 mg/kg
- Inhibition of diarrhoea (%) ([2]; dose 0.003 mg/kg p.o., mice, listed as compound of the invention, 0.003 mg/kg): 46.1%
- Inhibition of diarrhoea (%) ([2]; dose 0.01 mg/kg p.o., mice): 59.7%
- Inhibition of diarrhoea (%) ([2]; dose 0.03 mg/kg p.o., mice): 59.5%
- Inhibition of diarrhoea (%) ([2]; dose 0.1 mg/kg p.o., mice): 69.5%
- times more active than acetorphan ([2]; oral route, mice, diarrhoea caused by LPS): more than 6000 times
- ED50 [3]: < 0.001 mg/kg
- Action on the transit [7]: without acting on the transit
- ED50 [6]: 0.038 mg/kg
- times more active than the racemate ([6]; rat, in vivo, po): ~50 times
- Dose up to which no mortality was noted (strongest dose studied) [8]: ≥ 300 mg/kg
- Dose from which toxic symptoms were observed (none at lower doses) ([8]; respiratory depression, trembling, convulsions, prostration or lethargy, reversible in 24 hours): ≥ 100 mg/kg
- ED50 [4]: 0.019 mg/kg
- IC50 [5]: 17.9 nM
